Measured values taken from ChEMBL document CHEMBL3507680, “University of Dundee, Gates Library screen for HepG2 cell viability”.

Experiment: Human HepG2 cell viability assay in 384 well format
Assay type: toxicity, cell-based
Parameters: dose 125 nL, time 70.5 hour; concentration not given beside the values
Details: HepG2 cells, read-out: Inhibition

Row | SMILES | cytotoxicity at 70.5 h
1 | CCc1cc(N2CCC(n3cc(C(=O)NCC(C)C)nn3)CC2)ncn1 | 0.723%
2 | COc1cc(C)ccc1OCc1nc(C(=O)N2CCCO2)co1 | 10.4%
3 | CCCN1CCC(NC(=O)c2csc(C)c2C)CC1 | -7.88%
4 | Cc1cc(C(=O)N2CCCC(N3CCNC3=O)C2)nn1C(C)(C)C (stereo unspecified) | -0.73%
5 | CCn1cncc1C1CC(=O)Nc2c1c(C)nn2C (stereo unspecified) | -4.74%
6 | Cn1cnc2c1C(COCC1CC1)CN(C(=O)c1ccsc1)C2 (stereo unspecified) | 6.4%
7 | Cc1occc1C(=O)NCC1OCCc2cn(C)nc21 (stereo unspecified) | -3.82%
8 | Cc1cnn(CC2CN(CCS(C)(=O)=O)CCO2)c1 (stereo unspecified) | -4.67%
9 | Cc1nc(CNCc2ccc(OC34CCCN(CC3)C4)cc2)n[nH]1 (stereo unspecified) | -5.4%
10 | Cc1cc(OC(F)F)c(C(=O)NCC(O)c2cccc(F)c2)s1 (stereo unspecified) | 6.81%
11 | CN1CCC(c2cccc(NCc3ccncc3)n2)CC1 | -2.85%
12 | O=C(Cc1ccccc1)N1CCC2(CC(=O)N(c3cccc(F)c3)C2)C1 (stereo unspecified) | -4.78%
13 | COCCNC(=O)C1CN(Cc2cccnc2)Cc2ccnn2C1 (stereo unspecified) | -13.8%
14 | COc1ccc(NC(=O)Cc2c(C)nn(C)c2C)cc1F | 7.37%
15 | O=C1C(Sc2cnn[nH]2)CCCN1c1ccccc1F (stereo unspecified) | 19%
16 | NC1(C(=O)NCC2CCCN(Cc3ccccc3F)C2)CCCC1 (stereo unspecified) | -1.04%
17 | O=S(=O)(NCC(O)c1ccoc1)c1ccc(Cl)s1 (stereo unspecified) | 23%
18 | CCCc1noc(CN2CCC(N(C)Cc3nnc(C4CC4)o3)C2)n1 (stereo unspecified) | 4.17%
19 | CCOC(=O)CCC(=O)NC(C)c1ccc(NC(=O)CC)cc1 (stereo unspecified) | -3.08%
20 | NCC1CN(c2nc(-c3ccccc3)nc3c2CCNCC3)CCO1 (stereo unspecified) | 3.02%
21 | O=C(CC1CCc2ccccc21)N1CCC(O)(Cn2ccnc2)CC1 (stereo unspecified) | -5.64%
22 | CCC(CC)(CC)NC(=O)Nc1nnc(-c2ccccn2)s1 | -13.2%
23 | O=C(CN1CCc2cncnc2C1)NC1CCCCNC1=O (stereo unspecified) | 0.54%
24 | Cc1ccccc1C(=O)N1CCCn2nnc(Cn3cccn3)c2C1 | -9.23%

Row | SMILES | cytotoxicity at 70.5 h
25 | c1cc(CN2CCCC2)ccc1CNc1cncc2nnnn12 | -4.34%
26 | COCCN(Cc1cccnc1)S(=O)(=O)c1cc(C)ccc1F | -5.06%
27 | COC1CCN(C(=O)c2csc(-c3ccccc3F)n2)CC1 | -4.85%
28 | Cn1ccnc(Sc2ccc(O)cc2)c1=O | -14.3%
29 | Fc1ccc(-c2nc(CNCCn3cccn3)cs2)cc1 | 0.385%
30 | CCN1CCCCC1C(=O)N1CCN(C(=O)OC)CC1 (stereo unspecified) | -5.22%
31 | Cc1cc(CN2CCN(C(=O)c3sccc3C(C)C)CC2)no1 | -0.556%
32 | Cc1nc(C)n(CC2CCCCN2CC(=O)Nc2c(C)n[nH]c2C)n1 (stereo unspecified) | -1.79%
33 | CN(C)C(=O)CN1CCOCC2(C1)CN(c1ncccn1)CCO2 (stereo unspecified) | 16.4%
34 | CN1C(Cn2cccn2)C[C@@H]2CN(C(=O)c3cccc(C#N)c3)CC[C@@H]21 (stereo partly specified) | -7.79%
35 | Cc1cc(CN2CCC(N(C)Cc3noc(C4CC4)n3)C2)on1 (stereo unspecified) | 19.5%
36 | O=C(NCc1ccccn1)[C@H]1COC[C@H]2CN(CC3CC3)C[C@H]21 | -10.6%
37 | CC1CCCN(Cc2coc(-c3cccc(F)c3)n2)C1 (stereo unspecified) | -5.26%
38 | CCNc1cc2c(nn1)CCN(C(=O)c1ccc3cc[nH]c3c1)C2 | 2.8%
39 | CC(C)C[C@H](NC(=O)CNC(=O)OC(C)(C)C)C(=O)OC(C)(C)C | -0.919%
40 | CCc1ccc(C(=O)N(CC(F)(F)F)C2CCCOC2)o1 (stereo unspecified) | -6.93%
41 | CS(=O)(=O)c1cccc(C(=O)NCC2(c3ccccc3)CC2)c1 | -11.2%
42 | CC(=O)N1CC2(CCN(c3nccc4ccccc34)CC2)CC1C(=O)O (stereo unspecified) | -9.28%
43 | CCN(C(=O)CN1CCn2c(C)nnc2C1)C1=CCCCC1 | -17%
44 | Cc1nc(COc2ccc(S(=O)(=O)N(C)C)cc2)sc1C | -24.1%
45 | CC(C)C(=O)N1CCCC2(CCCN2Cc2cccnc2)C1 (stereo unspecified) | 1.65%
46 | Cc1nc(N2CCCOC(Cn3cccn3)C2)c2sccc2n1 (stereo unspecified) | -2.92%
47 | O=c1ccc2c([nH]1)CCC(NCc1ccc(F)cc1)C2 (stereo unspecified) | -5.16%
48 | N#Cc1ccc(CS(=O)(=O)NC(=O)COc2ccc3c(c2)CCC3)cc1 | -5.23%

Row | SMILES | cytotoxicity at 70.5 h
49 | O=C(c1cnc(-c2cnccn2)s1)N1CCCC1Cn1cccn1 (stereo unspecified) | -3.28%
50 | O=C(CCc1ccncc1)Nc1ccc(OCC2CC2)cc1 | -11.9%
51 | O=C(c1ccncc1)N1CCCN(Cc2nnc(C3CC3)o2)CC1 | -2.96%
52 | Cn1cnc2c1CCN(Cc1noc(-c3ccccc3)n1)C2 | -6.44%
53 | Cc1cc(C(F)(F)F)nn1CCCNC(=O)C1CCN(S(C)(=O)=O)CC1 | -10.7%
54 | CN(Cc1ccc2c(c1)OCCO2)c1ncc(S(N)(=O)=O)s1 | 8.35%
55 | CS(=O)(=O)c1ccc(NCc2ccc(F)cc2)cn1 | -6.37%
56 | Cc1nn(C)c(C)c1C(C)NC(=O)c1cc(CN2CCC(O)CC2)on1 (stereo unspecified) | -5.78%
57 | COCc1nc(NCC2CCS(=O)(=O)C2)c2cnn(C)c2n1 (stereo unspecified) | -7.96%
58 | Cc1cc(C(=O)N2CCCC2)ccc1NCCO | -10.2%
59 | O=C(C1CC1)N1CCC(c2nc(O)c3c(n2)CN(C2CCCC2)CC3)C1 (stereo unspecified) | 9.71%
60 | CCCn1ncc(CN2C[C@@H]3CCCN3C[C@@H]2Cc2ccccc2)c1C | -2.55%
61 | CCc1cccc2cc(CNCCCN3CCOCC3)c(=O)[nH]c12 | 0.0251%
62 | CCCc1cc(C(=O)N(Cc2cccnc2)C[C@@H]2CCC(=O)N2)no1 | -6.41%
63 | CCn1c(C2CCN(Cc3cc(C)n(NC(C)=O)c3C)CC2)n[nH]c1=O | -4.98%
64 | Cc1cc(NCC(=O)N(C)C)c(C(N)=O)cc1F | -0.553%
65 | CCS(=O)(=O)N1CCCC2(CCCN2C(=O)c2cscn2)C1 (stereo unspecified) | -0.54%
66 | CCS(=O)(=O)N1CCCCC1c1nc(C)no1 (stereo unspecified) | -5.51%
67 | O=C(CCCN1CCCCC1)N1CCN(C(=O)c2nc[nH]n2)CC1 | -3.03%
68 | Cn1c(CCNc2nccnc2C#N)nc2cc(Cl)ccc21 | -0.473%
69 | C=C(C)CN1C(=O)CC(Cc2ccc(F)cc2)C1=O (stereo unspecified) | -3.87%
70 | Cc1nn(C)c(C)c1CN(C)C(C(=O)O)c1ccc(F)cc1F (stereo unspecified) | -1.85%
71 | Cc1ccc(CCCC(=O)N(C)CCN2CCOCC2)cc1 | 13.8%
72 | CC(=O)N1CCC(Cc2cnc(Nc3cc(C)on3)cn2)CC1 | -4.74%

Row | SMILES | cytotoxicity at 70.5 h
73 | COc1cc(C(=O)NC(C)c2cccs2)cc2c1OCCO2 (stereo unspecified) | -9.64%
74 | Cn1ccnc1Sc1ncc(C(=O)N2CCCCC2)cc1Cl | -4.57%
75 | COc1cc(CNCC(O)c2ccc(F)c(F)c2)cc2c1OCO2 (stereo unspecified) | 29.9%
76 | CCCOc1cccc(NC(=O)NC2CCc3nc(C)nn3C2)c1 (stereo unspecified) | -5.39%
77 | O=C(c1ccco1)N1CCc2ncnc(NCc3ccccn3)c2CC1 | -8.48%
78 | COCCCC1(CO)CCCN(C(=O)c2cnc3c(c2)CCCC3)C1 (stereo unspecified) | -6.26%
79 | COCC1CC2(CCN(C(=O)c3cccc(C)c3)CC2)CO1 (stereo unspecified) | -12.6%
80 | CCN(CC)C(=O)c1nnsc1-c1ccc(Cl)cc1 | -17.2%
81 | CCc1cc(NC2CCOCC2)n2nc(C)c(C)c2n1 | -10.6%
82 | CC(C)COCCC(=O)Nc1cc(-n2nnnc2C2CC2)ccc1F | -8.14%
83 | COCc1nn(Cc2ccc(Br)s2)c(=O)o1 | -9.84%
84 | c1csc(-c2noc(CC3CCCO3)n2)c1 (stereo unspecified) | 6.86%
85 | COc1ccccc1CCNC(=O)C1CCC(Cn2cnnn2)CC1 (stereo unspecified) | -18.1%
86 | O=C(NC[C@H]1CCCC[C@H]1O)c1ccc2nc(-c3ccco3)[nH]c2c1 | -1.94%
87 | CCCn1ccnc1CN1CCCC(CC)(CO)C1 (stereo unspecified) | 26.9%
88 | Cc1ccc2c(c1)SCC(=O)N2Cc1noc(C2CCCO2)n1 (stereo unspecified) | -11.5%
89 | O=C(c1cccc(CN2CCCC2)c1)N1CCCC(n2cncn2)C1 (stereo unspecified) | 16.1%
90 | NC(=O)N1CC[C@H](O)[C@@H]1Cc1ccccc1 | -8.95%
91 | CC(=O)NC1CCCN(Cc2csc(-c3ncccn3)n2)C1 (stereo unspecified) | 18.7%
92 | Cn1cc(C(O)CNC(=O)c2sccc2OC(F)F)cn1 (stereo unspecified) | -4.33%
93 | CSc1nccc(N2CCC(NCCN3CCOCC3)CC2)n1 | -6.94%
94 | O=S(=O)(NCCc1ccccc1C(F)(F)F)N1CCOCC1 | 23.1%
95 | O=C1CCC(=O)N1CCn1nnc(-c2ccc(Br)cc2)n1 | -2.01%
96 | CCCn1ncc(C(=O)N(Cc2cccnc2)C[C@@H]2CCC(=O)N2)c1C | -5.8%

Row | SMILES | cytotoxicity at 70.5 h
97 | Cc1cccc(Cn2cc(C)c(N)n2)c1 | -1.64%
98 | CCCN1CCN(C(=O)c2ccc3nc(C)oc3c2)[C@H]2CS(=O)(=O)C[C@H]21 | -7.59%
99 | CCn1cc(NC(=O)C2CCN(CC(=O)NC3CCCC3)CC2)cn1 | -0.528%
100 | CN1CCN(C(=O)C2CCCN2c2ncnc3ccsc23)CC1 (stereo unspecified) | -11.8%
101 | CN1CCN(Cc2ccc(F)cc2)Cc2cccnc21 | -7.2%
102 | CCOCc1ccccc1NC(=O)NC1CCN(C(=O)OCC)CC1 | -5.57%
103 | O=C1CCCN1Cc1nnc2n1CCN(Cc1ccco1)CC2 | -1.59%
104 | CC1CCCCN1C1CN(c2nc(C3CCCC3)nc3c2cnn3C)C1 (stereo unspecified) | -3.67%
105 | Cc1ccc(NS(=O)(=O)c2c[nH]c3ncccc23)nc1 | -2%
106 | COc1ccc(C(=O)O)c(OCC(=O)NC(C)c2ccccc2)c1 (stereo unspecified) | -5.77%
107 | CCc1ncncc1C(=O)N1CCN(Cc2ccco2)CC1 | 10.8%
108 | CCN(Cc1ccncc1)c1cc(C2CCCNC2)nc(C)n1 (stereo unspecified) | -7.35%
109 | Cc1cc(NC(=O)NCc2ccncc2)ccc1OC(C)C | -3.47%
110 | CC(C)c1noc(C2CCCN2S(=O)(=O)N2CCCCCC2)n1 (stereo unspecified) | -6.79%
111 | Cc1ccsc1CN1CCC2(CC1)CC(OCc1cccnc1)CO2 (stereo unspecified) | -0.0736%
112 | CCc1csc(C2CCCN(C(=O)C3=NN(CC)C(=O)CC3)C2)n1 (stereo unspecified) | 3.39%
113 | CC(C)NC(=O)c1nc(Cn2c(C(F)F)nc3ccccc32)no1 | -15.2%
114 | CC(C)N1CCCc2sc(C(=O)NC3CC3)nc21 | 8.47%
115 | Cc1ccc(CN2CCc3nnc(CN4CCCC4=O)n3CC2)o1 | -3.79%
116 | CC(O)CN1CCN(Cc2nnc(C3CC3)o2)CC1 (stereo unspecified) | -4%
